Columns and labels:
Format in all cases: cell-based
[1] = system: basal glucose transport in A549 cells; assay: standard glucose uptake assay in A549 lung cancer cells; details: Homo sapiens, DMSO treated cells as negative control
Protocol: (§1) Compounds EKB-1, EKB-2, EKB-3, EKB-4, JDB-1, and JDB-2 were assayed for their ability to inhibit glucose uptake and cell growth in A549 lung cancer cell lines. A standard glucose uptake assay may be used to evaluate glucose uptake inhibition, and an MTT cell proliferation assay may be used to evaluate cancer cell growth inhibition. […] DMSO treated cells served as the negative control. […] Again, DMSO treated cells served as the negative control.

A549 cells = assay: MTT cell proliferation assay in A549 lung cancer cells; details: Homo sapiens, DMSO treated cells as negative control, read-out: Cell Growth Inhibition in A549 Cells (at 30 μM)
Protocol: as §1

[2] = system: basal glucose transport in H1299 cells; assay: standard glucose uptake assay in H1299 lung cancer cells; details: Homo sapiens, NCI-H1299, DMSO treated cells as negative control
Protocol: (§2) Compounds EKB-3 and EKB-4 were assayed for their ability to inhibit glucose uptake and cell growth in H1299 lung cancer cell lines. A standard glucose uptake assay may be used to evaluate glucose uptake inhibition, and an MTT cell proliferation assay may be used to evaluate cancer cell growth inhibition. […] DMSO treated cells served as the negative control. […] Again, DMSO treated cells served as the negative control. The glucose uptake inhibition and cell growth inhibition of comparative compound WZB-134 in H1299 cells is also provided in Table 2.

H1299 cells = assay: MTT cell proliferation assay in H1299 lung cancer cells; details: Homo sapiens, NCI-H1299, DMSO treated cells as negative control, read-out: Cell Growth Inhibition in H1299 Cells (at 30 μM)
Protocol: as §2

Compound | inhibition at 30 µM [1] [%] | inhibition at 30 µM (A549 cells) [%] | inhibition at 30 µM [2] [%] | inhibition at 30 µM (H1299 cells) [%]
COC(=O)C(Oc1ccc(Cl)cc1OCc1cccc(O)c1)c1cccc(O)c1 (stereo not shown) [EKB-2] | 56.1 | 51.5 | – | –
COC(=O)C(Oc1cc(Cl)ccc1OCc1cccc(O)c1)c1cccc(O)c1 (stereo not shown) [EKB-1] | 54.3 | 62.2 | – | –
COc1cccc(C(CO)Oc2cc(Cl)ccc2OCc2cccc(O)c2)c1 (stereo not shown) [JDB-2] | 34.8 | 39.7 | – | –
COC(=O)C(Oc1cc(Cl)ccc1OCc1cccc(O)c1)c1cccc(OC)c1 (stereo not shown) [JDB-1] | 19.7 | 24.6 | – | –
OCC(Oc1ccc(Cl)cc1OCc1cccc(O)c1)c1cccc(O)c1 (stereo not shown) [EKB-3] | 62.8 | 55.5 | 90.5 | 54
Oc1cccc(COc2cccc(F)c2OCc2cccc(O)c2)c1 [WZB-134, reference compound] | 96 | 10 | 92.5 | 10.6
